Results on one compound are retold here after US20150352081A1, “USE OF PIDOTIMOD TO TREAT ATOPIC DERMATITIS” (POLICHEM S.A., priority 2012, published 2015).

In data set [1] the test system is patients affected by atopic dermatitis. The experiment in a line: Safety/tolerability of the treatment in patients with atopic dermatitis. It is filed as in vivo, human. The settings on record: 5 patients, two applications daily, 12 weeks. The protocol: (§1) An evaluation of the activity of pidotimod was tested on patients affected by atopic dermatitis, in order to assess the efficacy in terms of improvement of the pathology by means of erythema evaluation. The safety of the treatment was also evaluated. The study was performed in 5 patients (4 females and 1 male, aged between 22-35 years, mean=29) with a clinical diagnosis of atopic dermatitis having as inclusion criteria the affection of the anterior flexural crease of the elbow or of the knee.
(§2) The study product was taken with the composition of the Example 1 at a dosage of two applications daily on the affected skin.
(§3) During the trial, the following visits were performed: • baseline—T0 (before the product use) • intermediate visit—T6 (after 6 weeks of treatment) • final visit—T12 (after 12 weeks of treatment)

Data set [2] shares this test system. As to the kind of experiment: Erythema score in patients with atopic dermatitis treated topically with pidotimod cream. The format is in vivo, human. Further details: Effect on erythema score: dose or concentration left out as unconfirmed. As to the method: as §1, §2, §3
The efficacy of the product was expressed by mean of a 5 points erythema score, assessing the score at the baseline, at the intermediate visit and the final one.

Square brackets hold non-standard residues; d marks the D form. Peptide text beside a SMILES is read from it. pGlu = O=C1CC[C@@H](C(=O)O)N1; Thz = O=C(O)[C@@H]1CSCN1

With `O=C1CC[C@@H](C(=O)N2CSC[C@H]2C(=O)O)N1` [pidotimod, (4R)-3-(5-oxo-L-prolyl)-1,3-thiazolidine-4-carboxylic acid] ([pGlu]-[Thz]-OH), in data set [1], the Side effects entry was “no side effects were reported” and the “Tolerability of the treatment” value was “very well tolerated”. Besides, the “Student t test p of the erythema score change” value in data set [2] (T12 (12 weeks) vs. T0 (baseline)) is given as below 0.05. In addition, in data set [2] (pidotimod cream, two applications daily, 12 weeks, compared to the baseline), the “Effect on erythema score” value is listed as “able to improve the erythema score”.
